These results are taken from US7754749B2, “Derivatives of a 1-phenyltriazole” (BASF Aktiengesellschaft, priority 2005, dated 2010).

Structures are written as SMILES.

Type in all cases: in vivo
In data set [1] the test system is brown planthopper (nilaparvata lugens). Kind of data set: Activity against brown planthopper. The conditions noted are these: rice seedlings sprayed, recorded after 24, 72 and 120 hours. As to the method:
9. Activity against brown planthopper (nilaparvata lugens)
The active compounds were formulated in 50:50 acetone:water. Potted rice seedlings were sprayed with 10 ml test solution, air dried, placed in cages and inoculated with 10 adults. Percent mortality was recorded after 24, 72 and 120 hours.

Data set [2] deals with cowpea aphid (aphis craccivora). Description: Activity against cowpea aphid. The protocol: 10. Activity against cowpea aphid (aphis craccivora)
The active compounds were formulated in 50:50 acetone:water. Potted cowpea plants colonized with 100-150 aphids of various stages were sprayed after the pest population has been recorded. Population reduction was recorded after 24, 72, and 120 hours.

Data set [3] concerns Colorado Potato Beetle. Description: Pesticidal action of synergistic mixtures, leaf dip bioassay on potato leaves. Particulars: Leptinotarsa decemlineata, foliar, 120 h. An excerpt:
(§1) 12. Pesticidal action of synergistic mixtures of compounds of formula I
(§2) Potato plants for Colorado potato beetle and two-leaf cotton plants for tobacco budworm were utilized for bioassays. Excised plant leaves were dipped into 1:1 acetone/water dilutions of the active compounds. After the leaves had dried, they were individually placed onto water-moistened filter paper on the bottoms of Petri dishes. Each dish was infested with 5-7 larvae and covered with a lid. Each treatment dilution was replicated 4 times. Test dishes were held at approximately 27° C. and 60% humidity. Numbers of live and morbid larvae were assessed in each dish at 5 days after treatment application, and percent mortality was calculated.
(§3) To determine if an insecticidal mixture was synergistic, Limpel's formula was used: E=X+Y−XY/100 • E=Expected % mortality of the mixture • X=% mortality of compound X, as measured independently • Y=% mortality of compound Y, as measured independently
(§4) Synergism was evident if the % observed mortality for the mixture was greater than the % expected mortality.

For data set [4], the system named is Tobacco Budworm. Kind of data set: Pesticidal action of synergistic mixtures, leaf dip bioassay on cotton leaves. Particulars: Heliothis virescens, foliar, 120 h.
From the text: as §1, §2, §3, §4

Data set [5] deals with German cockroach (Blattella Germanica). Description: Activity via glass contact. Particulars: rate of 5 ppm, 24 hours after treatment. An excerpt: (§5) 1. Activity against Argentine ant (Linepithema humile), harvester ant (Pogonomyrmex californicus), acrobat ant (Crematogaster spp.), carpenter ant (Camponotus floridanus), fire ant (Solenopsis invicta), house fly (Musca domestica), stable fly (Stomoxys calcitrans), flesh fly (Sarcophaga sp.), yellowfever mosquito (Aedes aegyptil), house mosquito (Culex quinquefasciatus), malaria mosquito (Anopheles albimanus), German cockroach (Blattella Germanica), cat flea (Ctenocephalides felis), and brown dog tick (Rhipicephalus sanguineus) via glass contact
(§6) Glass vials were treated with 0.5 ml of a solution of active ingredient in acetone and allowed to dry. Insects or ticks were placed into each vial together with some food and moisture supply.

The test system of data set [6] is acrobat ant (Crematogaster spp.). Kind of data set: Activity via glass contact. The conditions noted are these: rate of 10 ppm, 24 hours after treatment.
From the text: as §5, §6

Data set [7] deals with house fly (Musca domestica). Kind of data set: Activity via glass contact. The conditions noted are these: rate of 5 ppm, 24 hours after treatment.
From the text: as §5, §6

The test system of data set [8] is yellowfever mosquito (Aedes aegypti). Description: Activity via glass contact. The conditions noted are these: rate of 0.1 ppm, 24 hours after treatment.
From the text: as §5, §6

Data set [9] relates to eastern subterranean termite (Reticulitermes flavipes). Kind of data set: Activity via soil contact. The conditions noted are these: rate of 1 weight %, 3 days after treatment. As to the method:
(§7) 2. Activity against Argentine ant (Linepithema humile), acrobat ant (Crematogaster spp.), carpenter ant (Camponotus floridanus), fire ant (Solenopsis invicta), and eastern subterranean termite (Reticulitermes flavipes) via soil contact
For termites, a thin layer of 1% agar was dispensed into Petri dishes. A thin layer of pre-treated soil was spread over the agar. For soil treatment, the active ingredient was diluted in acetone on a weight-to-weight basis and incorporated into the soil. Termite workers were introduced into each dish. Filter paper served as a food source. Test dishes were held at about 25° C. Termites were observed daily for mortality (dead or unable to stand upright and showing only weak movement).

Data set [10] deals with carpenter ant (Camponotus floridanus). Description: Activity via soil contact. Particulars: 24 h, read-out: mortality of Camponotus floridanus. As to the method: as §7
For ants, tests were conducted in Petri dishes. A thin layer of 1% agar in water was dispensed into the dishes and Florida sandy soil was spread over the agar. The active ingredient was dissolved in acetone and dispensed over the sand. Dishes were vented to evaporate the acetone, infested with ants, and covered. A 20% honey water solution was placed in each dish. The dishes were maintained at 22° C. and observed for mortality at various time intervals.

For data set [11], the system named is eastern subterranean termite (Reticulitermes flavipes). Kind of data set: Activity via bait. The conditions noted are these: rate of 0.005 weight %; three days after treatment; bait (treated filter paper). As to the method:
3. Activity against Argentine ant (Linepithema humile), acrobat ant (Crematogaster spp.), carpenter ant (Camponotus floridanus), fire ant (Solenopsis invicta), house fly (Musca domestica), eastern subterranean termite (Reticulitermes flavipes), Formosan subterranean termite (Coptotermes formosanus), and German cockroach (Blattella Germanica) via bait
For termites, active ingredient in acetone was applied to filter papers. % a.i. were calculated on basis of the weight of the filter paper. Bioassays were conducted with one treated filter and ca. 30 termite workers per test Petri dish. Test dishes were maintained at 25° C. and observed daily for mortality (dead or moribund insects) or intoxication.

Data set [12] concerns cotton aphid (aphis gossypii). Description: Activity against cotton aphid. Particulars: 120 h, cotton cotyledons dipped, after 5 days. An excerpt: 5. Activity against cotton aphid (aphis gossypii)
(§8) The active compounds were formulated in 50:50 acetone:water and 100 ppm Kinetic™ surfactant.
Cotton plants at the cotyledon stage (one plant per pot) were infested by placing a heavily infested leaf from the main colony on top of each cotyledon. The aphids were allowed to transfer to the host plant overnight, and the leaf used to transfer the aphids was removed. The cotyledons were dipped in the test solution and allowed to dry. After 5 days, mortality counts were made.

For data set [13], the system named is green peach aphid (Myzus persicae). Kind of data set: Activity against green peach aphid. The conditions noted are these: 120 h, pepper leaves dipped, after 5 days, relative to check plants.
From the text: 6. Activity against green peach aphid (Myzus persicae)
as §8
Pepper plants in the 2nd leaf-pair stage (variety ‘California Wonder’) were infested with approximately 40 laboratory-reared aphids by placing infested leaf sections on top of the test plants. The leaf sections were removed after 24 hr. The leaves of the intact plants were dipped into gradient solutions of the test compound and allowed to dry. Test plants were maintained under fluorescent light (24 hour photoperiod) at about 25° C. and 20-40% relative humidity. Aphid mortality on the treated plants, relative to mortality on check plants, was determined after 5 days.

The subject of data set [14] is bean aphid (aphis fabae). Description: Activity against bean aphid. The conditions noted are these: 72 h.
From the text: 7. Activity against bean aphid (aphis fabae)
as §8
Nasturtium plants grown in Metro mix in the 1st leaf-pair stage (variety ‘Mixed Jewle’) were infested with approximately 2-30 laboratory-reared aphids by placing infested cut plants on top of the test plants. The cut plants were removed after 24 hr. Each plant was dipped into the test solution to provide complete coverage of the foliage, stem, protruding seed surface and surrounding cube surface and allowed to dry in the fume hood. The treated plants were kept at about 25° C. with continuous fluorescent light. Aphid mortality was determined after 3 days.

Data set [15] concerns silverleaf whitefly (bemisia argentifolii). Description: Activity against silverleaf whitefly. The conditions noted are these: in Gossypium hirsutum, 72 h. As to the method: 8. Activity against silverleaf whitefly (bemisia argentifolii)
as §8
Selected cotton plants were grown to the cotyledon state (one plant per pot). The cotyledons were dipped into the test solution to provide complete coverage of the foliage and placed in a well-vented area to dry. Each pot with treated seedling was placed in a plastic cup and 10 to 12 whitefly adults (approximately 3-5 day old) were introduced. The insects were colleted using an aspirator and an 0.6 cm, non-toxic Tygon® tubing (R-3603) connected to a barrier pipette tip. The tip, containing the collected insects, was then gently inserted into the soil containing the treated plant, allowing insects to crawl out of the tip to reach the foliage for feeding. The cups were covered with a reusable screened lid (150 micron mesh polyester screen PeCap from Tetko Inc). Test plants were maintained in the holding room at about 25° C. and 20-40% relative humidity for 3 days avoiding direct exposure to the fluorescent light (24 hour photoperiod) to prevent trapping of heat inside the cup. Mortality was assessed 3 days after treatment of the plants.

Data set [16] concerns diamond back moth (plutella xylostella). Kind of data set: Activity against diamond back moth. Particulars: in Brassica oleracea, foliar, 72 h. As to the method:
11. Activity against diamond back moth (plutella xylostella)
The active compounds were formulated in 50:50 acetone:water and 0.1% (vol/vol) Alkamuls EL 620 surfactant. A 6 cm leaf disk of cabbage leaves was dipped in the test solution for 3 seconds and allowed to air dry in a Petri plate lined with moist filter paper. The leaf disk was inoculated with 10 third instar larvae and kept at 25-27° C. and 50-60% humidity for 3 days. Mortality was assessed after 72 h of treatment.

Setting [17] is: read-out: % Mortality of Tobacco Budworm.
Setting [18] is: dose rate 100 ppm, 5 days after treatment.

For orientation: mortality means the share of the test organisms that died. Turning to `Cc1nc(C2CC2(Cl)Cl)nn1-c1c(Cl)cc(C(F)(F)F)cc1Cl` (stereo not shown) [I-2, 1-(2,6-dichloro-4-trifluoromethylphenyl)-3-(2,2-dichlorocyclopropyl)-5-methyl-1,2,4-triazole], the mortality at 300 ppm in [1] and in [2] was 100% each time.

With `CC1(C)C(C=C(Cl)Cl)C1C(=O)OC(C#N)c1cccc(Oc2ccccc2)c1` (stereo not drawn) [alpha-cypermethrin, reference compound], the mortality at 0.06 ppm in data set [3] (read-out: % Mortality of Colorado Potato Beetle) came out at 17.5%. Moreover, in data set [4] (setting [17]), the mortality at 0.03 ppm was 0% and the mortality at 0.06 ppm came out at 7.2%.

For `Cc1nc(C2(C)CC2(Cl)Cl)nn1-c1c(Cl)cc(C(F)(F)F)cc1Cl` (stereo not shown) [I-3, 3-(2,2-Dichloro-1-methyl-cyclopropyl)-1-(2,6-dichloro-4-trifluoromethyl-phenyl)-5-methyl-1H-[1,2,4]triazole], the mortality at 5 ppm in data set [5] and in data set [7] was 100% throughout. In data set [6], the “mortality of Crematogaster spp.” value amounted to 100%. Moreover, the mortality at 0.1 ppm in data set [8] was 100%. The “mortality of Reticulitermes flavipes” value in data set [9] and in data set [11] was 100% in each case. Besides, the mortality at 10 ppm in data set [10] was determined as 100%. In addition, the mortality at 300 ppm in data set [12], in data set [13], in [14], in data set [15], in data set [1] and in data set [2] was 100% each time. For the same molecule, the mortality at 300 ppm in data set [16] came to 100%; in [4] (dose rate 300 ppm, 5 days after treatment), 71.4%. For the same molecule, the mortality at 100 ppm in [3] (setting [18]) was determined as 12.5%; in data set [4] (setting [18]), 0%.
